The supplement of paper PMC10883282
± gives the standard deviation of the averaged measurements.

Assays:
Assay in all cases: relative viability vs DMSO control (72 h) (fraction); higher = more viable cells
A204 = tested on: A204
How it was run: (§1)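 Sarcoma cell lines were grown in 384-well plates seeded toward 80–90% confluence and exposed 24 h later to serially diluted compound. After 72 h at 37 °C and 5% CO2, with 0.1% DMSO vehicle and a 5 µM positive control on the plates, ATPLite was read. Relative viability, given as percent growth averaged over up to triplicate wells, was rescaled so that 1 is full and 0 is none.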

G401 = tested on: G401
How it was run: as §1

HS729 = tested on: HS729
How it was run: as §1

KHOS-240S = tested on: KHOS-240S
How it was run: as §1

MES-SA = tested on: MES-SA
How it was run: as §1

SK-ES-1 = tested on: SK-ES-1
How it was run: as §1

C#Cc1cccc(Nc2ncnc3cc(OCCOC)c(OCCOC)cc23)c1 [Erlotinib]
relative viability
Conditions | A204 | G401 | HS729 | KHOS-240S | MES-SA | SK-ES-1
0.00017 µM | 1.06 ± 0.077 | 1.04 ± 0.02 | 1.03 ± 0.077 | 1.06 ± 0.016 | 0.95 ± 0.035 | 1.048 ± 0.0034
0.00051 µM | 1.13 ± 0.042 | 1.05 ± 0.033 | 0.978 ± 0.094 | 1.07 ± 0.035 | 0.973 ± 0.035 | 1.04 ± 0.071
0.00152 µM | 1.09 ± 0.047 | 1.02 ± 0.034 | 0.976 ± 0.1 | 1.05 ± 0.036 | 0.979 ± 0.018 | 1.08 ± 0.021
0.00457 µM | 1.09 ± 0.094 | 1.04 ± 0.013 | 0.961 ± 0.1 | 1.08 ± 0.042 | 0.945 ± 0.014 | 1.07 ± 0.037
0.01372 µM | 1.07 ± 0.047 | 1.01 ± 0.025 | 1.01 ± 0.052 | 1.06 ± 0.045 | 0.96 ± 0.023 | 1.09 ± 0.012
0.04115 µM | 1.1 ± 0.042 | 1.03 ± 0.014 | 1 ± 0.04 | 1.07 ± 0.023 | 0.972 ± 0.024 | 1.07 ± 0.037
0.1235 µM | 1.09 ± 0.048 | 1.018 ± 0.0056 | 0.995 ± 0.068 | 1.087 ± 0.01 | 0.959 ± 0.035 | 1.05 ± 0.04
0.3704 µM | 1.09 ± 0.071 | 1.05 ± 0.013 | 1.01 ± 0.037 | 1.08 ± 0.026 | 0.948 ± 0.04 | 1.03 ± 0.036
1.111 µM | 1.01 ± 0.011 | 1.016 ± 0.01 | 0.92 ± 0.028 | 1.062 ± 0.0098 | 0.914 ± 0.026 | 0.85 ± 0.034
3.333 µM | 0.822 ± 0.069 | 0.9684 ± 0.0049 | 0.781 ± 0.023 | 1.06 ± 0.019 | 0.687 ± 0.03 | 0.567 ± 0.032
10 µM | 0.546 ± 0.035 | 0.787 ± 0.042 | 0.714 ± 0.023 | 0.949 ± 0.023 | 0.458 ± 0.017 | 0.324 ± 0.021
